From PMC7456811, “Regulation of Melanocortin-4 Receptor Pharmacology by Two Isoforms of Melanocortin Receptor Accessory Protein 2 in Topmouth Culter (Culter alburnus)” (Frontiers in Endocrinology, 2020)
Marks after values point to notes of the source that are not given here.

Tests used:
[1] = tested on: caMC4R; assay: Competitive ligand binding (125I-NDP-MSH displacement); settings: displacement of 125I-NDP-MSH; for IC50: HEK293T cells, mean ± SEM of at least three independent experiments
[2] = tested on: caMC4R; assay: Intracellular cAMP signaling (radioimmunoassay); assay type: cell-based, topmouth culter (Culter alburnus); settings: for stimulation of intracellular cAMP, in words / EC50 / Rmax (cAMP): HEK293T cells; for EC50: cAMP RIA; for EC50 / Rmax (cAMP): mean ± SEM of at least three independent experiments; for Rmax (cAMP): hMC4R = 100
Method: The medium contained Dulbecco's Modified Eagle's medium (DMEM) (Invitrogen, Carlsbad, CA, USA), 10% newborn calf serum, 10 mM HEPES, 50 μg/mL of gentamicin, 0.25 μg/mL of amphotericin B, 100 μg/mL of streptomycin and 100 IU/mL of penicillin. Cells were plated into 24-well or 6-well plates (Corning, NY, USA) pre-coated with 0.1% gelatin.
Radioimmunoassay for intracellular cAMP was performed as described previously ([47], [48]).
Prism 8.3 software (GraphPad, San Diego, CA, USA) was used to calculate parameters including maximal binding (Bmax), IC50, maximal response (Rmax), basal activity, and EC50. […] Ligand binding, cAMP, flow cytometry parameters of caMC4R regulated by MRAP2s and ERK1/2 signaling were analyzed for significance of differences by one-way ANOVA.
HEK293T cells were transiently transfected with MC4R plasmids. […] Data are mean ± SEM from triplicate measurements within one experiment. All experiments were performed at least three times independently.

Compound	binding affinity, in words [1]	EC50 and Rmax compared with hMC4R, in words ([2]; caMC4R versus hMC4R, cAMP)	stimulation of intracellular cAMP, in words ([2]; caMC4R)	EC50 ([2]; caMC4R) [nM]	Rmax (cAMP) ([2]; caMC4R)	allosteric agonism, in words ([2]; caMC4R, concluded from binding and cAMP data)	IC50 [1] [nM]
O=C(N[C@H](Cc1ccc(Cl)cc1)C(=O)N1CCC(Cn2cncn2)(C2CCCCC2)CC1)[C@H]1Cc2ccccc2CN1 [THIQ, N-[(3R)-1,2,3,4-Tetrahydroisoquinolinium-3-ylcarbonyl]-(1R)-1-(4-chlorobenzyl)-2-[4-cyclohexyl-4-(1H-1,2,4-triazol-1-ylmethyl)piperidin-1-yl]-2-oxoethylamine]	able to displace the ^125I-NDP-MSH bound with caMC4R	EC50 was significantly increased and Rmax was significantly decreased	dose-dependently increased intracellular cAMP levels	75.7 ± 10.6	39.73 ± 1.37^b %	not an allosteric agonist at caMC4R	–
CSCC[C@H](NC(=O)[C@H](CCCNC(=N)N)NC(=O)[C@H](Cc1ccc(O)cc1)NC(=O)[C@@H]1CCCN1C(=O)CNC(=O)[C@H](CCC(=O)O)NC(=O)[C@H](CC(=O)O)NC(=O)[C@H](CCCCN)NC(=O)[C@H](CCCCN)NC(=O)[C@H](CCC(=O)O)NC(=O)[C@H](C)N)C(=O)N[C@@H](CCC(=O)O)C(=O)N[C@@H](Cc1c[nH]cn1)C(=O)N[C@@H](Cc1ccccc1)C(=O)N[C@@H](CCCNC(=N)N)C(=O)N[C@@H](Cc1c[nH]c2ccccc12)C(=O)NCC(=O)N[C@@H](CO)C(=O)N1CCC[C@H]1C(=O)N1CCC[C@H]1C(=O)N[C@@H](CCCCN)C(=O)N[C@@H](CC(=O)O)C(=O)O [β-MSH, β-melanocyte-stimulating hormone]	significantly higher affinity to β-MSH than hMC4R	–	dose-dependently increased intracellular cAMP levels	5.76 ± 1.62	167.74 ± 27.91%	–	442 ± 65.4
[Nle^4, D-Phe^7]-α-MSH [NDP-MSH]	–	–	dose-dependently increased intracellular cAMP levels	0.44 ± 0.24	84.48 ± 8.28%	–	4.87 ± 1.8
